Among the data in patent US8933074B2, “1,2-disubstituted heterocyclic compounds” (FORUM Pharmaceuticals Inc., priority 2008, dated 2015) are IC50 values, retold here.

Bounds are passed on as bounds.

The IC50 is the concentration needed to halve the response being measured.

The target of this test is Human PDE10A1 (Homo sapiens, UniProt Q9Y233). The experiment in a line: hPDE10A1 enzyme inhibition. Format: biochemical. The note with it: [3H]-cAMP substrate, 20 minutes at 37° C.; read-out: hPDE10A1 IC50 Band. How it is done: 50 μl samples of serially diluted Human PDE10A1 enzyme were incubated with 50 μl of [^3H]-cAMP for 20 minutes (at 37° C.). Reactions were carried out in Greiner 96 deep well 1 ml master-block. The enzyme was diluted in 20 mM Tris HCl pH7.4 and [^3H]-cAMP was diluted in 10 mM MgCl2, 40 mM Tris.HCl pH 7.4. The reaction was terminated by denaturing the PDE enzyme (at 70° C.) after which [^3H]-5′-AMP was converted to [^3H]-adenosine by adding 25 μl snake venom nucleotidase and incubating for 10 minutes (at 37° C.). Adenosine, being neutral, was separated from charged cAMP or AMP by the addition of 200 μl Dowex resin. Samples were shaken for 20 minutes then centrifuged for 3 minutes at 2,500 r.p.m. 50 μl of supernatant was removed and added to 200 μl of MicroScint-20 in white plates (Greiner 96-well Optiplate) and shaken for 30 minutes before reading on Perkin Elmer TopCount Scintillation Counter.
Chain of Human PDE10A1 (Q9Y233 1-779 isoform Q9Y233-1): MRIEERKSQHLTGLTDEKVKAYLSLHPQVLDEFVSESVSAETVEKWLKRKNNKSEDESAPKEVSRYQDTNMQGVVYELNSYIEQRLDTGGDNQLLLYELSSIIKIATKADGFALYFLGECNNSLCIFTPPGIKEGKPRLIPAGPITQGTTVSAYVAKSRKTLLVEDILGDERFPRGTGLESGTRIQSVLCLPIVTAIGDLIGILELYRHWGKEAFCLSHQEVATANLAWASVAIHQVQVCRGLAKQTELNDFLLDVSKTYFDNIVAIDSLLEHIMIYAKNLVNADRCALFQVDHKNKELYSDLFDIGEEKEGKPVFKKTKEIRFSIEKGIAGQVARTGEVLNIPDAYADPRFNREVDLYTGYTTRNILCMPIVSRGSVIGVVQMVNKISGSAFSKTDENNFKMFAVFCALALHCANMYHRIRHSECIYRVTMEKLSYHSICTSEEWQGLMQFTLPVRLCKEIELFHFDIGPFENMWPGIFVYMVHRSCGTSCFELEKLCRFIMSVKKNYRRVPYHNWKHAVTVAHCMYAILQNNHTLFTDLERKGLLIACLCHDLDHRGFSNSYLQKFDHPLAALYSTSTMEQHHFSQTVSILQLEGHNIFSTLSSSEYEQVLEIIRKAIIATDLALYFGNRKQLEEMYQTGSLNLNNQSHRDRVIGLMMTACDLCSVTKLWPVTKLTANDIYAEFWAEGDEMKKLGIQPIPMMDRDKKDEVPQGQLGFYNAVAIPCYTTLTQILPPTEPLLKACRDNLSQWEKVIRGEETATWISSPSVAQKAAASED
To check inhibition profile 11 μl of serially diluted inhibitor was added to 50 μl of [^3H]-cAMP and 50 ul of diluted Human PDE10A1 and assay was carried out as in the enzyme activity assay. Data was analysed using Prism software (GraphPad Inc).
In the case of `CC1(C)OC(c2ccc(C#N)cc2)=C(c2ccc(OCc3ccc4ccccc4n3)cc2)C1=O` [Example 141, 4-(5,5-Dimethyl-4-oxo-3-(4-(quinolin-2-ylmethoxy)phenyl)-4,5-dihydrofuran-2-yl)benzonitrile], the IC50 is at most 50 nM.
In the case of `CC1(C)OC(c2ccc(C(F)(F)F)cc2)=C(c2ccc(OCc3ccc4ccccc4n3)cc2)C1=O` [Example 154, 2,2-dimethyl-4-(4-(quinolin-2-ylmethoxy)phenyl)-5-(4-(trifluoromethyl)phenyl)furan-3(2H)-one] it was at most 50 nM.
For `CC1(C)OC(c2ccc(OCC(F)(F)F)cc2)=C(c2ccc(OCc3ccc4ccccc4n3)cc2)C1=O` [Example 162, 2,2-dimethyl-4-(4-(quinolin-2-ylmethoxy)phenyl)-5-(4-(2,2,2-trifluoroethoxy)phenyl)furan-3(2H)-one], the IC50 is at most 50 nM.
Turning to `CC1(C)OC(c2ccc(F)cc2)=C(c2ccc(OCc3ccc4ccccc4n3)cc2)C1=O` [Example 153, 5-(4-fluorophenyl)-2,2-dimethyl-4-(4-(quinolin-2-ylmethoxy)phenyl)furan-3(2H)-one], the IC50 is at most 50 nM.
Consider `CC1(C)OC(c2ccc3nonc3c2)=C(c2ccc(OCc3ccc4ccccc4n3)cc2)C1=O` [Example 166, 5-(Benzo[c][1,2,5]oxadiazol-5-yl)-2,2-dimethyl-4-(4-(quinolin-2-ylmethoxy)phenyl)furan-3(2H)-one], for which the IC50 was at most 50 nM.
`CC1(C)OC(c2ccncn2)=C(c2ccc(OCc3ccc4ccccc4n3)cc2)C1=O` [Example 127, 2,2-dimethyl-5-(pyrimidin-4-yl)-4-(4-(quinolin-2-ylmethoxy)phenyl)furan-3(2H)-one]: the IC50 is over 50 nM.
`CC1(C)OC(c2ccc(-n3cnnn3)cc2)=C(c2ccc(OCc3ccc4ccccc4n3)cc2)C1=O` [Example 170, 5-(4-(1H-tetrazol-1-yl)phenyl)-2,2-dimethyl-4-(4-(quinolin-2-ylmethoxy)phenyl)furan-3(2H)-one]: the IC50 was at most 50 nM.
In the case of `COc1ccc(C2=C(c3ccc(OCc4ccc5ccccc5n4)cc3)C(=O)NC2(C)C)cc1` [Example 823, 4-(4-methoxyphenyl)-5,5-dimethyl-3-(4-(quinolin-2-ylmethoxy)phenyl)-1H-pyrrol-2(5H)-one], the concentration for half-maximal inhibition (IC50) is at most 50 nM.
Regarding `COc1ccc(C2=C(c3ccc(OCc4ccc5ccccc5n4)cc3)OC(C)(C)C2=O)cc1` [Example 262, 4-(4-methoxyphenyl)-2,2-dimethyl-5-(4-(quinolin-2-ylmethoxy)phenyl)furan-3(2H)-one], the IC50 was at most 50 nM.
As for `Cc1ccc(COc2ccc(C3=C(c4ccncc4)OC(C)(C)C3=O)cc2)nc1` [Example 808, 2,2-dimethyl-4-(4-((5-methylpyridin-2-yl)methoxy)phenyl)-5-(pyridin-4-yl) furan-3(2H)-one], the IC50 was at most 50 nM.
As to `Cc1ccc(C2=C(c3ccc(OCc4ccc5ccccc5n4)cc3)C(=O)C(C)(C)O2)cc1` [Example 818, 2,2-dimethyl-4-(4-(quinolin-2-ylmethoxy)phenyl)-5-p-tolylfuran-3(2H)-one], the IC50 is at most 50 nM.
Turning to `COc1ccc(C2=C(c3ccc(OCc4ccc5ccccc5n4)cc3)C(=O)C(C)(C)O2)cc1Cl` [Example 135, 5-(3-Chloro-4-methoxyphenyl)-2,2-dimethyl-4-(4-(quinolin-2-ylmethoxy)phenyl) furan-3(2H)-one], the IC50 is at most 50 nM.
On to `CC(=O)Nc1ccc(C2=C(c3ccc(OCc4ccc5ccccc5n4)cc3)C(=O)C(C)(C)O2)cc1` [Example 814, N-(4-(5,5-dimethyl-4-oxo-3-(4-(quinolin-2-ylmethoxy)phenyl)-4,5-dihydrofuran-2-yl)phenyl)acetamide], for which the IC50 was at most 50 nM.
On to `CC1(C)OC(c2ccc(CC(F)(F)F)cc2)=C(c2ccc(OCc3ccc4ccccc4n3)cc2)C1=O` [Example 156, 2,2-dimethyl-4-(4-(quinolin-2-ylmethoxy)phenyl)-5-(4-(2,2,2-trifluoroethyl)phenyl)furan-3(2H)-one], for which the IC50 was at most 50 nM.
